Laboratory results reported in patent publication US6667307B2, “Sulfonylalkanoylamino hydroxyethylamino sulfonamide retroviral protease inhibitors” (G.D. Searle & Co., priority 1995, dated 2003).

How the values were obtained:
[1] = molecular target: T1, HIV protease (Human immunodeficiency virus type 1 group M subtype B, UniProt P04585); assay: HIV protease enzyme assay (fluorescence, peptide substrate); format: biochemical; settings: HIV protease 12.3 nanomolar, substrate 80 μM, pH 6.4, ambient temperature
T1 construct: final enzyme concentration of 12.3 nanomolar, based on a molecular weight of 10,780
Source text: The compounds of the present invention are effective HIV protease inhibitors. Utilizing an enzyme assay as described below, the compounds set forth in the examples herein disclosed inhibited the HIV enzyme. The preferred compounds of the present invention and their calculated IC50 (inhibiting concentration 50%, i.e., the concentration at which the inhibitor compound reduces enzyme activity by 50%) values are shown in Table 9. The enzyme method is described below. The substrate is 2-Ile-Nle-Phe(p-NO2)-Gln-ArgNH2. The positive control is MVT-101 (Miller, M. et al, Science, 2, 1149 (1989)) The assay conditions are as follows:
20 mM sodium phosphate, pH 6.4
The above described substrate is dissolved in DMSO, then diluted 10 fold in assay buffer. Final substrate concentration in the assay is 80 μM. HIV protease is diluted in the assay buffer to a final enzyme concentration of 12.3 nanomolar, based on a molecular weight of 10,780.
The final concentration of DMSO is 14% and the final concentration of glycerol is 18%. The test compound is dissolved in DMSO and diluted in DMSO to 10× the test concentration; 10 μl of the enzyme preparation is added, the materials mixed and then the mixture is incubated at ambient temperature for 15 minutes. The enzyme reaction is initiated by the addition of 40 μl of substrate. The increase in fluorescence is monitored at 4 time points (0, 8, 16 and 24 minutes) at ambient temperature. Each assay is carried out in duplicate wells.

[2] = tested on: HIV-1 in CEM cells; assay: CEM cell assay: HIV inhibition in acutely infected cells (tetrazolium/MTT colorimetric); format: cell-based; settings: Human immunodeficiency virus 1, CCRF-CEM, 168 h, CEM cells acutely infected with HIV-1, 7 days, MTT readout
Protocol: The effectiveness of various compounds were determined in the above-described enzyme assay and in a CEM cell assay. The HIV inhibition assay method of acutely infected cell infected cells is an automated tetrazolium based colorimetric assay essentially that reported by Pauwles et al, J. Virol. Methods, 20 ≡, 309-321 (1988). Assays were performed in 96-well tissue culture plates. CEM cells, a CD4^+ cell line. were grown in RPMI-1640 medium (Gibco) supplemented with a 10% fetal calf serum and were then treated with polybrene (2 μg/ml). An 80 μl volume of medium containing 1×10^4 cells was dispensed into each well of the tissue culture plate. To each well was added a 100 μl volume of test compound dissolved in tissue culture medium (or medium without test compound as a control) to achieve the desired final concentration and the cells were incubated at 37° C. for 1 hour. A frozen culture of HIV-1 was diluted in culture medium to a concentration of 5×10^4 TCID50 per ml (TCID50=the dose of virus that infects 50% of cells in tissue culture), and a 20 μL volume of the virus sample (containing 1000 TCID50 of virus) was added to wells containing test compound and to wells containing only medium (infected control cells). Several wells received culture medium without virus (uninfected control cells). Likewise, the intrinsic toxicity of the test compound was determined by adding medium without virus to several wells containing test compound. In summary, the tissue culture plates contained the following experiments: [table] In experiments 2 and 4 the final concentrations of test compounds were 1, 10, 100 and 500 μg/ml. Either azidothymidine (AZT) or dideoxyinosine (ddI) was included as a positive drug control. […] DMSO was added to all control wells at an appropriate concentration. Following the addition of virus, cells were incubated at 37° C. in a humidified, 5% CO2 atmosphere for 7 days. Test compounds could be added on days 0, 2 and 5 if desired. On day 7, post-infection, the cells in each well were resuspended and a 100 μl sample of each cell suspension was removed for assay. A 20 μL volume of a 5 mg/ml solution of 3-(4,5-dimethylthiazol-2-yl)-2,5-diphenyltetrazolium bromide (MTT) was added to each 100 μL cell suspension, and the cells were incubated for 4 hours at […] in a 5% CO2 environment. […] To each sample was added 100 μl of 10% sodium dodecylsulfate in 0.01 N HCl to lyse the cells, and samples were incubated overnight. The absorbance at 590 nm was determined for each sample using a Molecular Devices microplate reader. Absorbance values for each set of wells is compared to assess viral control infection, uninfected control cell response as well as test compound by cytotoxicity and antiviral efficacy.

`CC(C)CN(C[C@@H](O)[C@H](Cc1ccccc1)NC(=O)[C@H](C)C[S+](C)[O-])S(=O)(=O)c1ccc2c(c1)OCO2` (single isomer, unassigned) [Entry 6] gave an IC50 [1] of 7 nM.
`CC(C)CN(C[C@@H](O)[C@H](Cc1ccccc1)NC(=O)[C@H](C)CS(C)(=O)=O)S(=O)(=O)c1ccc2c(c1)OCO2` [Entry 1] showed an IC50 [1] of 2 nM and an EC50 [2] of 20 nM.
`CC(C)CN(C[C@@H](O)[C@H](Cc1ccccc1)NC(=O)[C@H](C)CS(C)(=O)=O)S(=O)(=O)c1ccc2c(c1)CCO2` [Entry 2] showed an IC50 [1] of 2 nM and an EC50 [2] of 28 nM.
With `CC(C)CN(C[C@@H](O)[C@H](Cc1ccccc1)NC(=O)[C@H](C)CS(C)(=O)=O)S(=O)(=O)c1ccc2ncsc2c1` [Entry 3] the IC50 [1] was 3 nM and the EC50 [2] was 26 nM.
For `CC(C)CN(C[C@@H](O)[C@H](Cc1ccccc1)NC(=O)[C@H](C)CS(C)(=O)=O)S(=O)(=O)c1ccc2c(c1)OCCO2` [Entry 4], the IC50 [1] was 2 nM and the EC50 [2] was 12 nM.
`CC(C)CN(C[C@@H](O)[C@H](Cc1ccccc1)NC(=O)[C@H](C)C[S+](C)[O-])S(=O)(=O)c1ccc2c(c1)OCO2` (stereo partly drawn) [Entry 5] showed an IC50 [1] of 2 nM and an EC50 [2] of 52 nM.
Work on `CC(C)CN(C[C@@H](O)[C@H](Cc1ccccc1)NC(=O)[C@H](C)CS(C)(=O)=O)S(=O)(=O)c1ccc2c(c1)OCO2` [Example 47, N-[2R-hydroxy-3-[(2-methylpropyl)[(1,3-benzodioxol-5-yl)sulfonyl]amino]-1S-(phenylmethyl)propyl]-2S-methyl-3-(methylsulfonyl)propanamide] yielded a melting point of 131.8 to 133.8 °C.
